The record followed here is patent US10246455B2, “Histone deacetylase inhibitors” (Taipei Medical University, priority 2014, dated 2019).

The subject of series [1] is PC3 prostate cancer cells. Nature of the series: Three dimensional cell growth inhibitory assay (cellular spheres, MTT, microscopy): PC3. Type of series: cell-based, human. The note with it: for IC50: Homo sapiens. On the procedure: (§1) For the three dimensional assay, cells in the logarithmic phase were cultured in 50% Matrigel-containing complete medium in 96-well plates at 37° C. with 5% CO2 for five days incubation, and treated with appropriate concentrations of test compounds for three generative times. Images of spheroids were taken under a microscope, and spheroid cell survival was determined by MTT assays.
(§2) The cells (in the 2D culture) and the cellular spheres (in the 3D culture) were treated with test compounds for 72 hours, and then subjected to the MTT colorimetric assay. Each value represents the mean of three independent experiments. Cellular spheres formed in semi-solid and drug effect on cellular spheres were examined using phase-contrast light microscopy.
More specifically, cellular spheres formed in semi-solid and drug effect on cellular spheres were examined using phase-contrast light microscopy. 3D structures of cells were analyzed using 4× magnification, 10× magnification, and 20× magnification.

The test system of series [2] is LNCaP104-R1 prostate cancer cells. In words: Three dimensional cell growth inhibitory assay (cellular spheres, MTT): LNCaP104-R1. The following applies: Homo sapiens; 3D cellular sphere culture, LNCaP104-R1 (androgen-independent), 72 hours; read-out: MTT IC50 ± SD. Type of series: cell-based. On the procedure: as §1, §2
The test system of series [3] is LNCaP104-S prostate cancer cells. Nature of the series: Three dimensional cell growth inhibitory assay (cellular spheres, MTT): LNCaP104-S. The following applies: Homo sapiens; 3D cellular sphere culture, LNCaP104-S (androgen-dependent), 72 hours; read-out: MTT IC50 ± SD. Type of series: cell-based. On the procedure:
as §1, §2

Series [4] concerns LNCaP104-R1 prostate cancer cells. In words: Two dimensional cell growth inhibitory assay (MTT): LNCaP104-R1. The note with it: Homo sapiens, 72 h, read-out: MTT IC50 ± SD.
Description: (§3) For the two dimensional assay, cancel cells in the logarithmic phase were cultured in complete medium in 96-well plates at 37° C. with 5% CO2 for overnight incubation, and treated with various concentrations of test compounds for three generative times. Cells were then incubated with a serum free medium containing 3-(4,5-dimethylthiazol-2-yl)-2,5-diphenyltetrazolium bromide (MTT) at a final concentration of 0.5 mg/mM for four hours. MTT was converted to formazan by metabolically viable cells. Formazan was then solublized in 50% DMF solution containing 20% SDS at 37° C. overnight. Absorbance was measured at 570 nm using a spectramax M5 microplate reader (Molecular Devices, UK).
Series [5] relates to PC3 (prostate carcinoma). In words: IC50 in human cancer cell lines (inhibiting HDAC): PC3.
Series [6] has as its system HONE-1 (nasopharyngeal carcinoma). In words: IC50 in human cancer cell lines (inhibiting HDAC): HONE-1.
For series [7], the system named is HT-29 (colorectal carcinoma). In words: IC50 in human cancer cell lines (inhibiting HDAC): HT-29.
The test system of series [8] is histone and α-tubulin acetylation in PC3 cells. In words: Western blot: acetylation in PC3 cells. The class given is cell-based, human. The following applies: concentration-dependent. How it is done:
More specifically, cells in the logarithmic phase were initially seeded at a density of 1×10^6 in 100 mm^2 dishes. […] Briefly, cells were lysed with the cell lysis reagent CelLytic™ M (Sigma-Aldrich) containing 1 mM DTT, 1 mM PMSF and protease inhibitors for whole-cell lysate preparation. Equal amounts of lysate (on a protein basis) were then differentiated using the SDS-PAGE, blotted on PVDF membranes, conjugated with various specific primary antibodies, and then probed with appropriate secondary antibodies. The immunoreactive bands were detected using the ECL method and visualized on Kodak Bio-MAX MR film.
Proteins from cells were extracted and subjected to the western blotting analysis. β-Actin was used as an internal control. The deacetylase enzyme assay was based on a homogeneous fluorescence release assay. […] After fluorophore from the deacetylated substrates, fluorescent signal was detected.
(In general: A western blot detects proteins with antibodies after separation by electrophoresis.)

Series [9] deals with human PC3 prostate cancer cells xenograft. Nature of the series: In vivo antitumor activity assay, PC3 xenograft. An excerpt: The antitumor effect of the two test compounds were examined in mice xenografted with human PC3 prostate cancer cells or HCT116 colorectal cells.
Five million PC3 cells were subcutaneously inoculated into specific pathogen-free male athymic mice (strain BALB/cAnN.Cg-Foxn1nu/CrlNarl) from the National Laboratory Animal Center, Taiwan. Mice were subsequently fed under specific pathogen-free conditions and provided with sterile water and food. When the tumor volume reached 150 to 200 mm^3, mice were assigned to groups randomly and treated with vehicle control or Compound 7 or 5b at 25/50/100 mg/kg. The compound was administered once a day, 5 days/week for 2 weeks (n=6) by oral administration. Tumor volume and body weight change were measured twice a week. At the end of the experiments (day 25 after first dosing), animals were euthanized in a CO2-containing chamber, and the tumors were collected and fixed in formaldehyde. The terminal deoxynucleotidyl transferase-mediated dUTP nick end labeling assay (TUNEL) was conducted for apoptosis detection. Tumor tissue sections were analyzed using a FITC In Situ Cell death detection kit (Roche) and fluorescence microscopy. Tissue treated with DNase was used as the positive control. Green fluorescence labeled nucleus indicates the induction of DNA fragmentation.

Series [10] has as its system LNCaP104-S prostate cancer cells. In words: Two dimensional cell growth inhibitory assay (MTT): LNCaP104-S. The following applies: Homo sapiens, 72 h, read-out: MTT IC50 ± SD.
Description: as §3
Series [11] relates to androgen-independent PC3 prostate cancer cells. In words: Cell cycle analysis. Type of series: cell-based, human. The following applies: for cell cycle arrest and apoptosis: androgen-independent PC3 prostate cancer cells. On the procedure:
More specifically, cells in the logarithmic phase were initially seeded at a density of 1×10^6 in 100 mm^2 dishes. After treatment with various concentrations of test compounds for the indicated times, cells were trypsinized, washed with PBS, and fixed in 70% ethanol. The fixed cells were then treated with 50 μg/mL RNase and stained with 50 μg/mL propidium iodide at room temperature for 20 minutes. The DNA content was determined by BD FACS Calibur flow cytometry system (BD Biosciences). For each analysis, 10,000 cells were counted, and the percentage of cells in each phase was calculated using ModFit LT software (Verity Software House, Inc.).

For series [12], the system named is H460 (non-small-cell lung carcinoma). In words: IC50 in human cancer cell lines (inhibiting HDAC): H460.
In series [13] the test system is Du145 prostate cancer cells. In words: Two dimensional cell growth inhibitory assay (MTT): Du145. The following applies: Homo sapiens, DU-145, 72 h, read-out: MTT IC50 ± SD.
Description: as §3
In series [14] the test system is KB cell line (oral carcinoma). In words: IC50 in human cancer cell lines (inhibiting HDAC): KB.
For series [15], the system named is PC3 prostate cancer cells. Nature of the series: Two dimensional cell growth inhibitory assay (MTT): PC3. The following applies: Homo sapiens.
Description: as §3
Series [16] concerns LNCaP104-R2 prostate cancer cells. In words: Two dimensional cell growth inhibitory assay (MTT): LNCaP104-R2. The note with it: Homo sapiens, 72 h, read-out: MTT IC50 ± SD.
Description: as §3

Where two headings read alike, the source gives them in different places.

As to `COc1ccc(S(=O)(=O)N2CCc3cc(/C=C/C(=O)NO)cnc32)cc1` [Compound 5b, (E)-N-hydroxy-3-(1-(4-methoxyphenylsulfonyl)-2,3-dihydro-1H-pyrrolo[2,3-b]pyridin-5-yl)acrylamide], the IC50 in series [1] (3D cellular sphere culture, PC3, 72 hours, read-out: MTT IC50 ± SD) was 0.41 ± 0.06 µM; in [1] (Table 6, cell line not given, read-out: IC50 value 3D Culture) it was 0.41 ± 0.06 µM; in series [2], 0.15 to 0.625 µM; in series [3] it was 0.23 ± 0.03 µM; in [4], 0.1 ± 0.04 µM; in [5] (read-out: IC50 ± SD against human cancer cell lines) it was 0.17 ± 0.04 µM. Further, the IC50 amounted to 0.447 ± 0.0452 µM in series [6] (HONE1, read-out: IC50 ± SD against human cancer cell lines); 0.0854 ± 0.0098 µM in series [7] (HT-29, read-out: IC50 ± SD against human cancer cell lines); 0.15 ± 0.03 µM in series [10]; 0.113 ± 0.0095 µM in [12] (NCI-H460, read-out: IC50 ± SD against human cancer cell lines); 0.09 ± 0.03 µM in series [13]; 0.0866 ± 0.0171 µM in [14] (Homo sapiens, read-out: IC50 ± SD against human cancer cell lines, KB, oral carcinoma). In addition, the IC50 in series [15] (72 h, read-out: MTT IC50 ± SD) stood at 0.17 ± 0.04 µM; in series [15] (read-out: IC50 value 2D Culture) it was 0.17 ± 0.04 µM; in [16] it was 0.18 ± 0.07 µM. Besides, the “histone and α-tubulin acetylation” value in [8] is “induced histone and α-tubulin acetylation”. Besides, the “inhibition of human PC3 xenograft growth” value in series [9] (50 mg/kg oral, day 29 after the first dosing) is listed as “about 70%”; in [9] (100 mg/kg oral) it was “completely inhibited”. Further, in series [9] (PC3 xenograft, 100 mg/kg oral), the tumor regression entry is on record as “achieved tumor regression from day 8 to day 29”. In series [11], the p21 up-regulation result was “induced p21 up-regulation”. Besides, in series [11], the “cell cycle arrest and apoptosis” value was “induced cell cycle arrest and apoptosis”.

Consider `O=C(/C=C/c1cccc(S(=O)(=O)n2ccc3cccnc32)c1)NO` [Compound 7, (E)-3-(3-(1H-Pyrrolo[2,3-b]pyridin-1-ylsulfonyl)phenyl)-N-hydroxyacrylamide], for which the “effect on spheroid structure of PC3 tumors” value in series [1] (3D culture, phase-contrast light microscopy) was “disrupted the spheroid structure of PC3 tumors in a concentration-dependent manner”. The IC50 stood at 6.38 ± 0.16 µM in [1] (read-out: 3D Culture); 2.45 ± 0.15 µM in series [2]; 3.21 ± 0.15 µM in series [3]; 1.15 ± 0.03 µM in series [4]; 1.63 ± 0.41 µM in [5] (read-out: IC50, inhibiting HDAC in human cancer cell lines); 1.2 ± 0.31 µM in [6] (HONE1, read-out: IC50, inhibiting HDAC in human cancer cell lines). In addition, the IC50 in series [7] (HT-29, read-out: IC50, inhibiting HDAC in human cancer cell lines) turned out to be 1.24 ± 0.4 µM; in [10], 1.98 ± 0.1 µM; in series [12] (NCI-H460, read-out: IC50, inhibiting HDAC in human cancer cell lines), 0.57 ± 0.01 µM; in series [13], 1.22 ± 0.05 µM; in series [14] (read-out: IC50, inhibiting HDAC in human cancer cell lines, oral carcinoma) it was 0.76 ± 0.23 µM; in series [15] (read-out: 2D Culture) it was 2.99 ± 0.17 µM. Moreover, in [16], the IC50 was found to be 2.09 ± 0.11 µM. Also, the “cytotoxic / anti-proliferative activity in 3D versus 2D culture” value in series [1] (human prostate carcinoma cells, 2D and 3D culture) was “potent in both a 3D spheroid culture and a 2D culture”. Also, in [8], the “histone and α-tubulin acetylation” value was “induced histone and α-tubulin acetylation”. The “inhibition of human PC3 xenograft growth” value in series [9] (25 mg/kg oral, day 25 after the first dosing) was “about 50%”; in series [9] (50 mg/kg oral, day 25 after the first dosing) it was “about 50%”. The body weight change result in [9] (PC3 xenograft mice, 25 and 50 mg/kg oral) is listed as “without causing much body weight change”. For the same compound, the “cell cycle arrest and apoptosis” value in [11] is “induced cell cycle arrest and apoptosis”.
